Results from article PMC10057332, “Anticancer and Targeting Activity of Phytopharmaceutical Structural Analogs of a Natural Peptide from Trichoderma longibrachiatum and Related Peptide-Decorated Gold Nanoparticles” (International Journal of Molecular Sciences, 2023).
Where “and” joins values, the source holds several entries; their conditions need not be identical. Identical values can stand only once. Residues, ends and D or L forms follow the SMILES beside them.

Key:
MDA-MB-231 cells = experiment: MTS cytotoxicity in MDA-MB-231 triple negative breast cancer cells; type: cell-based, human; details: for killing activity in cancer cells: 10 µM peptide; for IC50: cells exposed to peptaibols for 24 h, MTS assay
Description: (§1) Cells were incubated with increasing concentrations of peptides for 24 h before assessing cell viability with MTS assay in order to create dose/response curves (Figure 4) and calculate the half maximal inhibitory concentration (IC50) values for each peptaibol (Table 3). For convenience, peptides have been subdivided based on their C-terminal substituents, i.e., leucinol (lol) or amide (-NH2).
(§2) The cytotoxicity of peptides and free Api8- and Leu4-decorated GNPs was assessed with the MTS assay (CellTiter 96® AQueous One Solution Cell Proliferation Assay, Promega, Milan, Italy) in cancer MDA-MB-231 and normal MCF-10A cells exposed to increasing concentrations of peptaibols/GNPs for 24 h. Cells (8 × 10^3 cells/well for MDA-MB-231, 6 × 10^3 cells/well for MCF-10A) were seeded in 96-well plates, and after 24 h the medium was replaced with a fresh one containing peptaibols/GNPs. For MTS assay, the medium was replaced with 100 μL of serum-free medium and 20 μL of the CellTiter 96® reagent. After 60–90 min, the absorbance at 492 nm was measured with a Multiskan Go (Thermo Fischer Scientific, Carlsbad, CA, USA) plate reader and cell viability was expressed as a function of absorbance relative to that of control cells (considered as 100% viability). IC50 values for each peptaibol treatment were extrapolated from the relative dose–response curves obtained with the software GraphPad Prism 9.5.

MCF-10A cells = experiment: MTS cytotoxicity in normal epithelial breast MCF-10A cells; type: cell-based, human; details: for IC50: cells exposed to peptaibols for 24 h, MTS assay; for effect on viability of MCF-10A cells: peptide concentration range tested, 24 h, MTS
Description: as §1, §2

[1] = test system: MDA-MB-231 with respect to MCF-10A cells; experiment: Flow cytometry uptake of FITC-conjugated peptaibols; type: cell-based, human; details: highest concentration tested, 24 h incubation
Description: For this study, we decided to focus our attention on the unique, noncytotoxic, yet membrane-active peptides Leu4-NH2 and Api8-NH2 to study them as potential cancer-targeting agents. […] As reference, K6-NH2 internalization was measured as well, since for this specific peptide, previous studies already reported an increased uptake in tumor cells (HDLM-2 and A2780 tumor cell lines) with respect to normal healthy cells, such as peripheral blood mononuclear cells (PBMCs) or fibroblasts.
Figure 5 Flow cytometry measurements of FITC-conjugated peptaibols in MDA-MB-231 (a) and MCF-10 (b) cells after a 24 h incubation period.
Flow cytometry and peptides conjugated with FITC, namely Api8-FITC and Leu4-FITC, were used to assess the capacity of peptaibols to be internalized by breast cancer cells, Briefly, 8 × 10^4 MDA-MB-231 and MCF-10A cells/well were grown in 24-well plates for 24 h and then incubated for 24 h with 5 μM peptaibols. […] Those washings both before cell detachment from plates and after cell recovery and centrifugation removed any peptides not strongly associated with cell plasma membranes, assuring FITC signals measured by flow cytometry were referred exclusively to internalized peptides. Cells were centrifuged and resuspended in Versene before measuring FITC fluorescence using a BD Fortessa^TM X-20 flow cytometer (Becton Dickinson, San Jose, CA, USA). […]

[2] = MCF-10A cells, 1 h at 37 °C, CD at 25 °C
Description: The CD profile of Api8-NH2 and Leu4-NH2 was also acquired in the presence of cells (cell line MCF-10A) (Figure 1). This study also provided information on the stability of the peptides in the biological environment [63].
Figure 1 CD profiles of Leu4-NH2 and Api8-NH2 acquired at 25 °C in the presence of MCF-10A epithelial breast cells. (Peptide concentrations: Api8, 5 × 10^−5 M; Leu4, 1 × 10^−5 M).
The CD spectra were obtained on a Jasco (Tokyo, Japan) J-1500 spectropolarimeter. Fused quartz cells (Hellma, Mühlheim, Germany) of 1 mm path length were used. The values are expressed in terms of [θ]T, total molar ellipticity (deg∙cm^2∙dmol^−1). […] The CD measurements in cells were performed as follows: 1 × 10^6 cells were harvested, washed twice in PBS and incubated in the same buffer with peptides (concentrations: Api8, 5 × 10^−5 M; Leu4, 1 × 10^−5 M) for 1 h at 37°C in a rotating mixer before recording the CD spectra.

## CCCCCCCC(=O)NC(C)(C)C(=O)NCC(=O)N[C@@H](CC(C)C)C(=O)NC(C)(C)C(=O)N[C@@H](CCCCN)C(=O)N[C@@H](CCCCN)C(=O)N[C@@H](CC(C)C)C(=O)NC(C)(C)C(=O)NCC(=O)N[C@H](C(=O)N[C@H](CO)CC(C)C)[C@@H](C)CC [K56-Lol, Oct-Aib^1-Gly-Leu-Aib^4-Lys-Lys-Leu-Aib^8-Gly-Ile-Lol^11]
MDA-MB-231 cells; 24 h, MTS
  killing activity in cancer cells: ~20%
MDA-MB-231 cells
  IC50: 12 µM
MCF-10A cells
  IC50: 18 µM

## CCCCCCCC(=O)NC(C)(C)C(=O)N[C@@H](CCCCN)C(=O)N[C@@H](CC(C)C)C(=O)NC(C)(C)C(=O)N[C@@H](CCCCN)C(=O)N[C@@H](CCCCN)C(=O)N[C@@H](CC(C)C)C(=O)NC(C)(C)C(=O)N[C@@H](CCCCN)C(=O)N[C@H](C(=O)N[C@H](CO)CC(C)C)[C@@H](C)CC [K2569-Lol, Oct-Aib^1-Lys-Leu-Aib^4-Lys-Lys-Leu-Aib^8-Lys-Ile-Lol^11] (HELM PEPTIDE1{[CCCCCCCC(=O)[*:2]].[Aib].K.L.[Aib].K.K.L.[Aib].K.I.[CC(C)C[C@@H](CO)N[*:1]]}$$$$V2.0)
MDA-MB-231 cells; 24 h, MTS
  killing activity in cancer cells: ~30%
MDA-MB-231 cells
  IC50: 12 µM
MCF-10A cells
  IC50: 14 µM

## Oct-Aib^1-Gly-Leu-Leu^4-Gly-Gly-Leu-Aib^8-Gly-Ile-Leu^11-NH-(CH2)2-NH-FITC [Leu4-FITC]
[1]
  internalization in MDA-MB-231 with respect to MCF-10A cells: about 5 folds

## CCCCCCCC(=O)NC(C)(C)C(=O)NCC(=O)N[C@@H](CC(C)C)C(=O)N[C@@H](CC(C)C)C(=O)NCC(=O)NCC(=O)N[C@@H](CC(C)C)C(=O)NC(C)(C)C(=O)NCC(=O)N[C@H](C(=O)N[C@H](CO)CC(C)C)[C@@H](C)CC [Leu4-Lol, reference compound] (HELM PEPTIDE1{[CCCCCCCC(=O)[*:2]].[Aib].G.L.L.G.G.L.[Aib].G.I.[CC(C)C[C@@H](CO)N[*:1]]}$$$$V2.0)
MDA-MB-231 cells
  IC50: > 20 µM
MCF-10A cells
  IC50: > 20 µM
  effect on viability of MCF-10A cells: did not significantly affect the viability

## Oct-Aib^1-Gly-Leu-Aib^4-Gly-Gly-Leu-Api^8-Gly-Ile-Leu^11-NH-(CH2)2-NH-FITC [Api8-FITC]
[1]
  internalization in MDA-MB-231 with respect to MCF-10A cells: ~3 folds

## CCCCCCCC(=O)NC(C)(C)C(=O)N[C@@H](CCCCN)C(=O)N[C@@H](CC(C)C)C(=O)NC(C)(C)C(=O)N[C@@H](CCCCN)C(=O)NCC(=O)N[C@@H](CC(C)C)C(=O)NC(C)(C)C(=O)N[C@@H](CCCCN)C(=O)N[C@H](C(=O)N[C@@H](CC(C)C)C(N)=O)[C@@H](C)CC [K259-NH2, Oct-Aib^1-Lys-Leu-Aib^4-Lys-Gly-Leu-Aib^8-Lys-Ile-Leu^11-NH2] (HELM PEPTIDE1{[CCCCCCCC(=O)[*:2]].[Aib].K.L.[Aib].K.G.L.[Aib].K.I.L.[am]}$$$$V2.0)
MDA-MB-231 cells
  IC50: ~13 µM and 13 µM
MCF-10A cells
  IC50: 17 µM

## CCCCCCCC(=O)NC(C)(C)C(=O)N[C@@H](CCCCN)C(=O)N[C@@H](CC(C)C)C(=O)NC(C)(C)C(=O)N[C@@H](CCCCN)C(=O)NCC(=O)N[C@@H](CC(C)C)C(=O)NC(C)(C)C(=O)N[C@@H](CCCCN)C(=O)N[C@H](C(=O)N[C@H](CO)CC(C)C)[C@@H](C)CC [K259-Lol, Oct-Aib^1-Lys-Leu-Aib^4-Lys-Gly-Leu-Aib^8-Lys-Ile-Lol^11] (HELM PEPTIDE1{[CCCCCCCC(=O)[*:2]].[Aib].K.L.[Aib].K.G.L.[Aib].K.I.[CC(C)C[C@@H](CO)N[*:1]]}$$$$V2.0)
MDA-MB-231 cells; 24 h, MTS
  killing activity in cancer cells: ~60%
MDA-MB-231 cells
  IC50: 10 µM
MCF-10A cells
  IC50: 15 µM

## CCCCCCCC(=O)NC(C)(C)C(=O)N[C@@H](CCCCN)C(=O)N[C@@H](CC(C)C)C(=O)NC(C)(C)C(=O)N[C@@H](CCCCN)C(=O)NCC(=O)N[C@@H](CC(C)C)C(=O)NC(C)(C)C(=O)NCC(=O)N[C@H](C(=O)N[C@H](CO)CC(C)C)[C@@H](C)CC [K25-Lol, Oct-Aib^1-Lys-Leu-Aib^4-Lys-Gly-Leu-Aib^8-Gly-Ile-Lol^11] (HELM PEPTIDE1{[CCCCCCCC(=O)[*:2]].[Aib].K.L.[Aib].K.G.L.[Aib].G.I.[CC(C)C[C@@H](CO)N[*:1]]}$$$$V2.0)
MDA-MB-231 cells; 24 h, MTS
  killing activity in cancer cells: ~60%
MDA-MB-231 cells
  IC50: 9 µM
MCF-10A cells
  IC50: 16 µM

## CCCCCCCC(=O)NC(C)(C)C(=O)NCC(=O)N[C@@H](CC(C)C)C(=O)NC(C)(C)C(=O)NCC(=O)NCC(=O)N[C@@H](CC(C)C)C(=O)NC1(C(=O)NCC(=O)N[C@H](C(=O)N[C@@H](CC(C)C)C(N)=O)[C@@H](C)CC)CCNCC1 [Api8-NH2, Oct-Aib^1-Gly-Leu-Aib^4-Gly-Gly-Leu-Api^8-Gly-Ile-Leu^11-NH2] (HELM PEPTIDE1{[CCCCCCCC(=O)[*:2]].[Aib].G.L.[Aib].G.G.L.[O=C(C1(N[*:1])CCNCC1)[*:2]].G.I.L.[am]}$$$$V2.0)
MDA-MB-231 cells
  IC50: > 20 µM
MDA-MB-231 cells; peptide concentration range tested, 24 h, MTS
  effect on viability of MDA-MB-231 cells: did not significantly affect the viability
MCF-10A cells
  IC50: > 20 µM
  effect on viability of MCF-10A cells: did not significantly affect the viability
[2]
  stability in the presence of cells (CD): stability of the peptides in the presence of cells

## CCCCCCCC(=O)NC(C)(C)C(=O)N[C@@H](CCCCN)C(=O)N[C@@H](CC(C)C)C(=O)NC(C)(C)C(=O)NCC(=O)NCC(=O)N[C@@H](CC(C)C)C(=O)NC(C)(C)C(=O)NCC(=O)N[C@H](C(=O)N[C@@H](CC(C)C)C(N)=O)[C@@H](C)CC [K2-NH2, Oct-Aib^1-Lys-Leu-Aib^4-Gly-Gly-Leu-Aib^8-Gly-Ile-Leu^11-NH2] (HELM PEPTIDE1{[CCCCCCCC(=O)[*:2]].[Aib].K.L.[Aib].G.G.L.[Aib].G.I.L.[am]}$$$$V2.0)
MDA-MB-231 cells; 24 h, MTS
  killing activity in cancer cells: about 90%
MDA-MB-231 cells
  IC50: 9 µM
MCF-10A cells
  IC50: 17 µM

## CCCCCCCC(=O)NC(C)(C)C(=O)NCC(=O)N[C@@H](CC(C)C)C(=O)N[C@@H](CC(C)C)C(=O)NCC(=O)NCC(=O)N[C@@H](CC(C)C)C(=O)NC(C)(C)C(=O)NCC(=O)N[C@H](C(=O)N[C@@H](CC(C)C)C(N)=O)[C@@H](C)CC [Leu4-NH2, Oct-Aib^1-Gly-Leu-Leu^4-Gly-Gly-Leu-Aib^8-Gly-Ile-Leu^11-NH2] (HELM PEPTIDE1{[CCCCCCCC(=O)[*:2]].[Aib].G.L.L.G.G.L.[Aib].G.I.L.[am]}$$$$V2.0)
MDA-MB-231 cells
  IC50: > 20 µM
MCF-10A cells
  IC50: > 20 µM
  effect on viability of MCF-10A cells: did not significantly affect the viability
[2]
  stability in the presence of cells (CD): stability of the peptides in the presence of cells
